In patent US12251411B2, “Methods of treating endometrial cancer using hemp extract” (Ecofibre USA Inc., priority 2021, dated 2025):
Like-named read-outs stand apart in the source and are kept apart here.

Key:
[1] = cited from earlier work
[2] = tested on: patient derived organoids; assay: Calculated IC50 of various agents on organoids derived from the chemoresistant patient (PD3D cell culture); format: cell-based, human; details: organoids of the chemoresistant stage IV patient
Protocol: The IC50 values were calculated from such tests. This value indicates the dosage at which 50% of the organoids were killed due to treatment.

endometrial cancer = assay: Case of a patient with stage IV chemoresistant metastatic endometrial cancer (PET/CT follow up)
Excerpt: Soon after the experiments detailed above a person came to us. They were diagnosed with endometrial cancer after presenting with significant pain and discomfort. They had already undergone a total hysterectomy and bilateral salpingo-oophorectomy followed by five rounds of chemotherapy. Each of the first five rounds of chemotherapy was a combined chemotherapy with Paclitaxil/Carboplatin.
See, Tables 3 and 4, below. […] As such, […] began standard protocol GemCap treatment in combination with a regime of 30 mg of BSHE twice daily via oral mucosal delivery and 75 mg of FSHE once daily via intravaginal delivery.

[3] = tested on: patient derived organoids; format: cell-based, human; details: % of cells that died compared to control; organoids of the chemoresistant patient
Protocol: In addition to the agents listed above, several other drugs were tested to see if they influenced organoid growth. In this case, results are shown as the % of cells that died compared to control. […] This is consistent with the patient's actual lack of response to treatment with paclitaxel.

[4] = oral formulations; cited from earlier work
[5] = tested on: patient derived endometrial cancer organoids; assay: Patient-derived endometrial cancer organoid viability: chemotherapeutic agent alone or with IC50 dose of cannabis extract; details: patient 4
Protocol: To perform these experiments, we used cells from patient 4 (see, e.g., FIGS. 7A and 7C) to test grade 2 endometrial cancer and cells from patient 12 (see, e.g., FIGS. 7B-7D) to test grade 3 endometrial cancer. […] Methods concerning producing organoids from human tissue samples are provided in the Methods section at the end of this document.
Individual patient cell organoids were cultured separately in different plates.
The same IC50 dose was given with each incremental dose of chemotherapeutic agent.

[6] = before cannabis extract treatment

Compound | Cmax ([1]; in vivo) [µM] | % Cell Death [3] | also measured
O=C(c1cc(Cc2n[nH]c(=O)c3ccccc23)ccc1F)N1CCN(C(=O)C2CC2)CC1 [Olaparib] |  |  | Cmax [1]: 17.5 µM; Calculated IC50 PD3D Cell Culture [2]: Not Reached
O=C(c1ccc(F)c(F)c1Nc1ccc(I)cc1F)N1CC(O)([C@@H]2CCCCN2)C1 [Cobimetinib] |  |  | Cmax [1]: 0.514 µM; Calculated IC50 PD3D Cell Culture [2]: Not Reached
Paclitaxil/Carboplatin |  |  | outcome of the patient's earlier treatment (endometrial cancer; [6]): ineffective
Cc1[nH]c2ccccc2c1CCNCc1ccc(/C=C/C(=O)NO)cc1 [Panobinostat] | 0.06 |  | IC50 ([2]; Homo sapiens): 0.11 µM
C[C@H]1[C@H](OC(=O)CCC(=O)O)O[C@@H]2O[C@@]3(C)CC[C@H]4[C@H](C)CC[C@@H]1[C@@]24OO3 [Artesunate] | 8.58 |  | IC50 ([2]; Homo sapiens): 38.4 µM
O=P1(N(CCCl)CCCl)NCCCO1 (centres unmarked) [Cyclosphosphamide] |  | 32% | 
CC(C)NCC(O)COc1cccc2ccccc12 (centres unmarked) [Propranolol] |  |  | Cmax [1]: 0.102 µM
CC[C@]1(O)C[C@H]2CN(CCc3c([nH]c4ccccc34)[C@@](C(=O)OC)(c3cc4c(cc3OC)N(C=O)[C@H]3[C@@](O)(C(=O)OC)[C@H](OC(C)=O)[C@]5(CC)C=CCN6CC[C@]43[C@@H]65)C2)C1 [vincristine] |  | No Response | 
CN(Cc1cnc2nc(N)nc(N)c2n1)c1ccc(C(=O)N[C@@H](CCC(=O)O)C(=O)O)cc1 [methotrexate] |  | No Response | 
COc1cc2c(c(OC)c1OC)-c1ccc(OC)c(=O)cc1[C@@H](NC(C)=O)CC2 [Colchicine] | 0.006 |  | 
O=P1(NCCCl)OCCCN1CCCl (centres unmarked) [ifosfamide] |  | No Response | 
Nc1cccc2c1C(=O)N(C1CCC(=O)NC1=O)C2=O (centres unmarked) [Pomalidomide] | 0.27 |  | Calculated IC50 PD3D Cell Culture [2]: Not Reached
Nc1ccn([C@@H]2O[C@H](CO)[C@@H](O)C2(F)F)c(=O)n1 [Gemcitabine] |  | 56% | 
O=C1O[C@H]([C@@H](O)CO)C(O)=C1O [Ascorbic Acid] | 436 |  | Calculated IC50 PD3D Cell Culture [2]: Not Reached
COc1cc([C@@H]2c3cc4c(cc3[C@@H](O[C@@H]3O[C@@H]5CO[C@@H](C)O[C@H]5[C@H](O)[C@H]3O)[C@H]3COC(=O)[C@H]23)OCO4)cc(OC)c1O [Etoposide] |  | 33% | Cmax [1]: 33.9 µM; IC50 ([2]; Homo sapiens, unit inferred): 87.3 µM
CC(=O)O[C@@]12CO[C@@H]1C[C@H](O)[C@@]1(C)C(=O)[C@H](O)C3=C(C)[C@@H](OC(=O)[C@H](O)[C@@H](NC(=O)OC(C)(C)C)c4ccccc4)C[C@@](O)([C@@H](OC(=O)c4ccccc4)[C@H]21)C3(C)C [Docetaxel] |  | No Response | 
CCN1CCN(Cc2ccc(Nc3ncc(F)c(-c4cc(F)c5nc(C)n(C(C)C)c5c4)n3)nc2)CC1 [Abemaciclib] |  |  | adverse effects of the patient's earlier treatment (endometrial cancer; human, in vivo): severe adverse effects
COc1cc2c(cc1O)CCN[C@]21CS[C@@H]2c3c(OC(C)=O)c(C)c4c(c3[C@H](COC1=O)N1[C@@H]2[C@H]2c3c(cc(C)c(OC)c3O)C[C@@H]([C@@H]1O)N2C)OCO4 [Trabectedine] |  | 32% | 
CCN(CC)CCNC(=O)c1c(C)[nH]c(/C=C2\C(=O)Nc3ccc(F)cc32)c1C [Sunitnib] | 0.09 |  | Calculated IC50 PD3D Cell Culture [2]: Not Reached
C[C@@H](Oc1cc(-c2cnn(C3CCNCC3)c2)cnc1N)c1c(Cl)ccc(F)c1Cl [Crizotinib] | 0.23 |  | Calculated IC50 PD3D Cell Culture [2]: Not Reached
O=C(O)C(Cl)Cl [Dichloracetate] | 330 |  | Calculated IC50 PD3D Cell Culture [2]: Not Reached
N.N.[Cl][Pt][Cl] [Cisplatin] | 3.62 | 36% | IC50 [2]: 5.05 µM
N[C@@H](Cc1ccc(N(CCCl)CCCl)cc1)C(=O)O [Melphalan] |  | 40% | 
COc1cccc2c1C(=O)c1c(O)c3c(c(O)c1C2=O)C[C@@](O)(C(=O)CO)C[C@@H]3O[C@H]1C[C@H](N)[C@@H](O)[C@H](C)O1 [epirubicin] |  | No Response | 
CCCCCc1cc(O)c2c(c1)OC(C)(C)[C@@H]1CCC(C)=C[C@@H]21 [THC, Δ^9-tetrahydrocannabinol] |  |  | onset to reach peak plasma concentration [4]: ~120 min

Compound | Cmax ([1]; in vivo) [µM] | % Cell Death [3] | also measured
N[C@@H](CCC(=O)N[C@@H](CS)C(=O)NCC(=O)O)C(=O)O [Glutathione] | 150 |  | Calculated IC50 PD3D Cell Culture [2]: Not Reached
Bevacizumab | 0.92 |  | Calculated IC50 PD3D Cell Culture [2]: Not Reached
CN(C)C(=N)N=C(N)N [Metformin] | 10.8 |  | Calculated IC50 PD3D Cell Culture [2]: Not Reached
Cc1ccc(C(=O)Nc2ccc(CN3CCN(C)CC3)c(C(F)(F)F)c2)cc1C#Cc1cnc2cccnn12 [Ponatinib] |  |  | Cmax [1]: 0.137 µM
O=C1[O][Pt]2([NH][C@@H]3CCCC[C@H]3[NH]2)[O]C1=O [oxaliplatin] |  | No Response | 
N.N.O=C([O-])C1(C(=O)[O-])CCC1.[Pt+2] [Carboplatin] |  | 30% | reduction of viable organoids ([5]; carboplatin alone 50 μM/mL): about 50%; decrease in viability as compared to 50 μM/mL ([5]; carboplatin alone 100 μM/mL): 2%; decrease in viability from that achieved at 50 μM/mL ([5]; carboplatin alone 250 μM/mL): 17%; organoid viability ([5]; carboplatin alone 250 μM/mL): about 32%
COc1cccc2c1C(=O)c1c(O)c3c(c(O)c1C2=O)C[C@@](O)(C(=O)CO)C[C@@H]3O[C@H]1C[C@H](N)[C@H](O)[C@H](C)O1 [Doxorubicin] |  | 39% | 
CCc1c2c(nc3ccc(OC(=O)N4CCC(N5CCCCC5)CC4)cc13)-c1cc3c(c(=O)n1C2)COC(=O)[C@]3(O)CC [Irinotecan] |  | 51% | 
N#CC[C@H](C1CCCC1)n1cc(-c2ncnc3[nH]ccc23)cn1 [Ruxolitinib] |  |  | Cmax [1]: 0.587 µM
CO[C@H]1C(=O)[C@]2(C)[C@@H](OC)C[C@H]3OC[C@@]3(OC(C)=O)[C@H]2[C@H](OC(=O)c2ccccc2)[C@]2(O)C[C@H](OC(=O)[C@H](O)[C@@H](NC(=O)OC(C)(C)C)c3ccccc3)C(C)=C1C2(C)C [Cabazitaxel] |  | 37% | 
Cn1nnc2c(C(N)=O)ncn2c1=O [Temozolomide] | 37.6 | 40% | IC50 ([2]; Homo sapiens): 106 µM
CCN(CCO)CCCC(C)Nc1ccnc2cc(Cl)ccc12 (centres unmarked) [Hydroxychloroquine] | 0.12 |  | Calculated IC50 PD3D Cell Culture [2]: Not Reached
O=C1c2c(O)ccc(O)c2C(=O)c2c(NCCNCCO)ccc(NCCNCCO)c21 [Mitoxantrone] |  | 50% | 
CCCCCOC(=O)Nc1nc(=O)n([C@@H]2O[C@H](C)[C@@H](O)[C@H]2O)cc1F [Capecitabine (5-FU)] |  | 61% | Calculated IC50 PD3D Cell Culture [2]: Not Reached
CC[C@]1(O)C[C@@H]2CN(CCc3c([nH]c4ccccc34)[C@@](C(=O)OC)(c3cc4c(cc3OC)N(C)[C@H]3[C@@](O)(C(=O)OC)[C@H](OC(C)=O)[C@]5(CC)C=CCN6CC[C@]43[C@@H]65)C2)C1 [Vinblastine] |  | 38% | 
C=C1C[C@@H]2CC[C@@]34C[C@H]5O[C@H]6[C@@H](O3)[C@H]3O[C@H](CC[C@@H]3O[C@H]6[C@H]5O4)CC(=O)C[C@@H]3[C@@H](OC)[C@@H](C[C@H](O)CN)O[C@H]3C[C@H]3O[C@@H](CC[C@@H]1O2)C[C@@H](C)C3=C [eribulin] |  | No Response | 
CO[C@@]12[C@H](COC(N)=O)C3=C(C(=O)C(C)=C(N)C3=O)N1C[C@@H]1N[C@@H]12 [mitomycin] |  | No Response | 
COc1cc2nccc(Oc3ccc(NC(=O)NC4CC4)c(Cl)c3)c2cc1C(N)=O [Lenvatinib] |  |  | Cmax [1]: 1 µM; Calculated IC50 PD3D Cell Culture [2]: Not Reached
CO[C@@H](C)Cn1c(=O)n(C)c2cnc3ccc(-c4cncc(C(C)(C)O)c4)cc3c21 [Samotolisib] | 0.6 |  | IC50 ([2]; Homo sapiens): 0.87 µM
CCC1=C[C@@H]2CN(C1)Cc1c([nH]c3ccccc13)[C@@](C(=O)OC)(c1cc3c(cc1OC)N(C)[C@H]1[C@@](O)(C(=O)OC)[C@H](OC(C)=O)[C@]4(CC)C=CCN5CC[C@]31[C@@H]54)C2 [Vinorelbine] |  | 45% | 
Atezolizumab |  |  | adverse effects of the patient's earlier treatment (endometrial cancer; [6]): severe adverse effects; outcome of the patient's earlier treatment (endometrial cancer; [6]): failed
O=C(Nc1ccc([N+](=O)[O-])cc1Cl)c1cc(Cl)ccc1O [Niclosamide] | 0.31 |  | IC50 ([2]; Homo sapiens): 0.6 µM
Nc1nc2[nH]cc(CCc3ccc(C(=O)N[C@@H](CCC(=O)O)C(=O)O)cc3)c2c(=O)[nH]1 [Pemetrexed] |  | No Response | Cmax [1]: 291 µM; Calculated IC50 PD3D Cell Culture [2]: Not Reached
CN(C)/N=N/c1[nH]cnc1C(N)=O [Dacarbazine] |  | 32% | 
Bleomycin |  | 53% | 
